Test results reported in US11471558B2, “Polypeptide and hyaluronic acid coatings” (INSTITUT NATIONAL DE LA SANTE ET DE LA RECHERCHE MEDICALE …, priority 2016, dated 2022).

Key:
S. aureus [1] = experiment: Minimal inhibitory concentration of PAR in solution; type: cell-based; conditions: for bacterial growth inhibition by PAR in solution: 1 μM; for times less active than PAR100 or PAR200 chains (from MICs in solution): per chain
Procedure: Staphylococcus aureus (S. aureus, ATCC 25923) strains were used to assess the antibacterial properties of the test samples. Bacterial strain was cultured aerobically at 37° C. in a Mueller Hinton Broth (MHB) medium (Merck, Germany), pH 7.4. One colony was transferred to 10 mL of MHB medium and incubated at 37° C. for 20 h, to provide a final density of 10^6 CFU·mL^−1. To obtain bacteria in the mid logarithmic phase of growth, the absorbance at 620 nm of overnight culture was adjusted of 0.001.
In the following the inventors of the present invention wanted to further elucidate the underlying mechanism that confer to the coatings of the invention the strong inhibitory property on the surface and in the supernatant. As an example the (PAR30/HA)24 coating was further investigated. Accordingly, the minimal inhibitory concentration (MIC) of PAR in solution was determined using bacterial assay as described in Experimental Section. […] Finally for PAR at concentrations of 0.01 mg·mL^−1, inhibition of 100% was shown only for PAR30. Longer or shorter PAR chains (PAR10, PAR100 or PAR200) inhibits only partially (less than 40%) S. aureus growth. […] This reasoning is valid when PAR concentration values are expressed in mass (mg·mL^−1) thus it is related to the number of arginine monomers. However when the graph is plotted with concentrations in μM (and thus proportional in number of chains), which means that concentration is related to number of chains, different interpretation can be made. […] Moreover the MIC100 values obtained for PAR30, PAR100 or PAR200 ranges at very low concentrations (between 1 and 2 μM) which is remarkable when compared to well-known antimicrobial peptides (for example 30 μM for cateslytin with S. aureus, see Adv. Funct. Mater. 2013, 23, 4801-4809). PAR is thus a powerful candidate to fight against S. aureus.
FIG. 12: Graph with the Minimal inhibitory concentration (MIC100) of soluble PAR with 10, 30, 100 or 200 arginine residues. The Minimal inhibitory concentration (MIC100) leading to 100% inhibition of S. aureus were measured in solution. PAR with 10, 30, 100 or 200 arginine residues were tested.

S. aureus [2] = conditions: Adv. Funct. Mater. 2013, 23, 4801-4809; cited from earlier work
[3] = concentrations up to 0.04 mg·mL−1

Substance	bacterial growth inhibition by PAR in solution (S. aureus [1])	S. aureus growth inhibition by PAR in solution (S. aureus [1]; 0.03 mg·mL−1)	S. aureus growth inhibition by PAR in solution (S. aureus [1]; [3])	S. aureus growth inhibition by PAR in solution (S. aureus [1]; 0.01 mg·mL−1)	MIC90 (S. aureus [1]; PAR in solution, S. aureus)	times less active than PAR100 or PAR200 chains (from MICs in solution) (S. aureus [1])	MIC with S. aureus (antimicrobial peptide, literature) (S. aureus [2])
poly-L-arginine [PAR100]	totally inhibit	total inhibition	totally inhibited	–	–	–	–
poly-L-arginine [PAR30]	–	total inhibition	totally inhibited	100%	about 2 μM	2 times	–
cateslytin	–	–	–	–	–	–	30 µM
poly-L-arginine [PAR10]	–	total inhibition	totally inhibited	–	–	10 times	–
poly-L-arginine [PAR200]	totally inhibit	about 45%	totally inhibited	–	–	–	–
